US10207993B2 (priority 2014, dated 2019)
“And” between values parts separate entries of the source, which are not always exact repeats. Identical values can stand only once. Like-named read-outs stand apart in the source and are kept apart here.

Tests used:
[1] = Balb/C, mouse, in vivo, po, 10 mg/kg
H37Rv [2] = type: cell-based, M. tuberculosis
MYC431 [3] = type: cell-based, M. tuberculosis
H37Rv [4] = test: microbe, parasite or virus in culture; type: cell-based, M. tuberculosis; details: Mycobacterium tuberculosis, THP-1, 90 h
MDR-M. tb (JAL2287) = system: MDR-M. tb (JAL2287); parameters: species or system M. tuberculosis; details: in vivo
in vivo [5] = details: Balb/C, mouse
JAL2287 [6] = type: cell-based, M. tuberculosis
MYC431 [7] = test: microbe, parasite or virus in culture; type: cell-based, M. tuberculosis; details: Mycobacterium tuberculosis, THP-1, 90 h
in vivo [8] = details: Beagle, dog
JAL2287 [9] = test: microbe, parasite or virus in culture; type: cell-based, M. tuberculosis; details: Mycobacterium tuberculosis, THP-1, 90 h
H37Rv [10] = test: microbe, parasite or virus in culture; type: cell-based, M. tuberculosis; details: Mycobacterium tuberculosis, H37RV, THP-1, 90 h, read-out: H37Rv % Inhibition at 500 nM
[11] = system: drug susceptible M. tb (H37Rv); parameters: species or system M. tuberculosis; details: in vivo

SMILES: CO[C@@H](C(=O)NC1CCNCC1)c1ccccc1 [Compound 1085, (R)-2-Methoxy-2-phenyl-N-(piperidin-4-yl)acetamide]
- Cl [1]: 0.12 L/kg/h
- Vd [1]: 0.13 L/kg
- CFU/well (1 × 10^3) After treatment with 1085 (H37Rv [2]): 8.66 ± 2.51 CFU/well (1 × 10^3)
- CFU/well (1 × 10^3) After treatment with 1085 (MYC431 [3]): 6.00 ± 1.00 CFU/well (1 × 10^3)
- EC50 (H37Rv [4]): 0.5 nM
- % Reduction of CFU in lung (MDR-M. tb (JAL2287)): 43.5% and 62.4% and 80.0%
- % Reduction of CFU in spleen (MDR-M. tb (JAL2287)): 96.6% and 98.3%
- CFU/spleen (×10^3) (MDR-M. tb (JAL2287)): 0.4 ×10^3 and 0.2 ×10^3
- bioavailability (in vivo [5]): 47%
- AUC (in vivo [5]; iv, 1 mg/kg): 1.73 µM·h
- Cmax (in vivo [5]; iv, 1 mg/kg): 3.06 µM
- Tmax (in vivo [5]; iv, 1 mg/kg): 0 min
- Vd (in vivo [5]; iv, 1 mg/kg): 0.22 L/kg
- clearance (in vivo [5]; iv, 1 mg/kg): 1.33 mL/min/kg
- half-life (in vivo [5]; iv, 1 mg/kg): 114 min
- AUC (in vivo [5]; po, 10 mg/kg): 8.17 µM·h
- Cmax (in vivo [5]; po, 10 mg/kg): 11.2 µM
- Tmax (in vivo [5]; po, 10 mg/kg): 12 min
- half-life (in vivo [5]; po, 10 mg/kg): 168 min
- CFU/well (1 × 10^3) After treatment with 1085 (JAL2287 [6]): 6.33 ± 3.51 CFU/well (1 × 10^3)
- EC50 (MYC431 [7]): 0.1 nM
- bioavailability (in vivo [8]): 57%
- AUC(0-t) (in vivo [8]; iv, 0.3 mg/kg): 3.44 µM·h
- Cmax (in vivo [8]; iv, 0.3 mg/kg): 2.76 µM
- Tmax (in vivo [8]; iv, 0.3 mg/kg): 0 h
- half-life (in vivo [8]; iv, 0.3 mg/kg): 180 min
- AUC(0-t) (in vivo [8]; po, 3 mg/kg): 19.6 µM·h
- Cmax (in vivo [8]; po, 3 mg/kg): 3.77 µM
- Tmax (in vivo [8]; po, 3 mg/kg): 1 h
- half-life (in vivo [8]; po, 3 mg/kg): 150 min
- EC50 (JAL2287 [9]): 0.1 nM
- inhibition at 0.5 µM (H37Rv [10]): 93%
- CFU/Lung (×10^5) [11]: 4.76 ×10^5
